# Source: patent US20040106626A1, “6-Membered unsaturated heterocyclic compounds useful for selective inhibition of the coagulation cascade” (Pharmacia Corporation, priority 2001, published 2004)
# pIC50: −log10 of the molar value. Where a name gives a salt, the structure may show the parent alone.
# How the values were obtained:
# Assay type in all cases: biochemical
# [1] = target: T1, recombinant soluble tissue factor and recombinant human factor VIIa (TF-VIIa) (Homo sapiens, UniProt P08709); experiment: TF-VIIa assay (chromogenic substrate hydrolysis); settings: reported only as less than or greater than 0.1 uM
# T1 construct: conversion of coagulation factor VII to VIIa by factor Xa; purchased American Diagnostica, Greenwich CT; host or cells: soluble TF made in house in E. coli
# Experimental: In this assay 100 nM recombinant soluble tissue factor and 2 nM recombinant human factor VIIa are added to a 96-well assay plate containing 0.4 mM of the substrate, N-methylsulfonyl-D-phe-gly-arg-p-nitroaniline and either inhibitor or buffer (5 mM CaCl2, 50 mM Tris-HCl, pH 8.0, 100 mM NaCl, 0.1% BSA). […] Percent inhibition of TF-VIIa activity is calculated from OD405 nm value from the experimental and control sample.
# (§1) Recombinant human VIIa was purchased from American Diagnostica, Greenwich CT and chromogenic substrate N-methylsulfonyl-D-phe-gly-arg-p-nitroaniline was prepared by American Peptide Company, Inc., Sunnyvale, Calif. Factor Xa was obtained from Enzyme Research Laboratories, South Bend Ind., thrombin from Calbiochem, La Jolla, Calif., and trypsin and L-BAPNA from Sigma, St. Louis Mo.
# Human factor Xa = target: T2, Human factor Xa (Homo sapiens, UniProt P00742); experiment: Xa assay (chromogenic substrate S-2765); settings: reported only as less than or greater than 30 uM; read-out: Factor Xa (II) IC50
# T2 construct: purchased Enzyme Research Laboratories, South Bend Ind
# Experimental: Human factor Xa (0.3 nM) and 0.15 mM -a-Benzyloxycarbonyl-D-arginyl-L-glycyl-L-arginine-p-nitroaniline-dihydrochloride (S-2765) are added to a 96-well assay plate containing either inhibitor or buffer (50 mM Tris-HCl, pH 8.0, 100 mM NaCl, 0.1% BSA). The reaction, in a final volume of 100 ul is measured immediately at 405 nm to determine background absorbance. The plate is incubated at room temperature for 60 min, at which time the rate of hydrolysis of the substrate is measured by monitoring the reaction at 405 nm for the release of p-nitroaniline. Percent inhibition of Xa activity is calculated from OD405 nm value from the experimental and control sample.
# Recombinant soluble TF, consisting of amino acids 1-219 of the mature protein sequence was expressed in E. coli and purified using a Mono Q Sepharose FPLC. Recombinant human VIIa was purchased from American Diagnostica, Greenwich CT and chromogenic substrate N-methylsulfonyl-D-phe-gly-arg-p-nitroaniline was prepared by American Peptide Company, Inc., Sunnyvale, Calif. Factor Xa was obtained from Enzyme Research Laboratories, South Bend Ind., thrombin from Calbiochem, La Jolla, Calif., and trypsin and L-BAPNA from Sigma, St. Louis Mo. The chromogenic substrates S-2765 and S-2238 were purchased from Chromogenix, Sweden.
# [2] = test system: Normal human pooled plasma; experiment: Prothrombin time (PT) clotting assay; settings: concentration at which prothrombin time is prolonged by 2x normal, reported as less than or greater than 50 uM
# Experimental: The prothrombin time (PT) assay is a clotting assay that is used to determine deficiencies of clotting factor activity in the extrinsic pathway. The assay measures time to clotting after the addition of thromboplastin (human tissue factor). Normal human pooled plasma is incubated with 100 uM compound or saline in a coagulation machine. Thromboplastin is added and time to clotting is measured. Compounds with greater than 3×normal PT of 11.0 seconds are further analyzed by concentration response to determine at what concentration the prothrombin time is prolonged by 2×normal.
# Human thrombin = target: T3, Human thrombin (Homo sapiens, UniProt P00734); experiment: Thrombin assay (chromogenic substrate); settings: reported only as less than or greater than 30 uM; read-out: Thrombin (II) IC50
# T3 construct: converts prothrombin (II) to thrombin (IIa); purchased Calbiochem, La Jolla, Calif
# Experimental: Percent inhibition of thrombin activity is calculated from OD405 nm value from the experimental and control sample.
# as §1
# T1 sequence (P08709 213-466 limits assumed): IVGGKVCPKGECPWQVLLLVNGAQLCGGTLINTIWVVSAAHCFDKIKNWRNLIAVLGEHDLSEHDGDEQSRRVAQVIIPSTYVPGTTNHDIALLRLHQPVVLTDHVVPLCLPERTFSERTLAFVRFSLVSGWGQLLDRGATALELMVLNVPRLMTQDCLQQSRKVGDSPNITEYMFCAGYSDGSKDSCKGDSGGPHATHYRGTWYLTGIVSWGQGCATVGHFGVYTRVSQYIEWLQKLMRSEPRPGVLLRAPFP
# T1 sequence (P08709 61-212 limits assumed): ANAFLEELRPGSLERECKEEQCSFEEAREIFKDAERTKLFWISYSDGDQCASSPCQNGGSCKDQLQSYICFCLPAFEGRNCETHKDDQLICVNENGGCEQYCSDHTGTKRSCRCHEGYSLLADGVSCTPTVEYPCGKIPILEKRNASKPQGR
# T1 sequence (P13726 33-251 partner limits assumed): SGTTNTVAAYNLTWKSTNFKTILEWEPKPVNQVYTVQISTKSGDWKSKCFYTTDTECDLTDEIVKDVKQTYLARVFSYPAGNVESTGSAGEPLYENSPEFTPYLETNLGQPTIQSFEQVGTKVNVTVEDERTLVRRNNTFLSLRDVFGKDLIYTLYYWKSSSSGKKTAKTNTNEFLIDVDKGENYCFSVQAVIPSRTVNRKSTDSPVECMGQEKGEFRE
# T2 sequence (P00742 235-488 limits assumed): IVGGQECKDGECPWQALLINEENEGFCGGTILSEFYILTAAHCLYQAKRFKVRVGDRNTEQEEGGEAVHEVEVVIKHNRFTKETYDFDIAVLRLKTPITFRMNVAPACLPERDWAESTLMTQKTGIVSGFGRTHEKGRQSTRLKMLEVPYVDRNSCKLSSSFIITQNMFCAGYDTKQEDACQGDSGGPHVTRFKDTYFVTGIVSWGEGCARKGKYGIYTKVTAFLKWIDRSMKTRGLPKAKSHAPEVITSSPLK
# T2 sequence (P00742 41-179 limits assumed): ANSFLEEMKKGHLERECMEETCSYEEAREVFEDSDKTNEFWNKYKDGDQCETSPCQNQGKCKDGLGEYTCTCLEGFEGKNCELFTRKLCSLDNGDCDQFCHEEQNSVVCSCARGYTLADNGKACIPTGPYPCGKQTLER
SMILES,pIC50 [1],pIC50 (Human factor Xa),pIC50 (Human thrombin),PT (Prothrombin time) 2xPT [2] [µM]
CC(C)Nc1nc(Cl)c(-c2cc(N)cc(O)c2)n(CC(=O)NCc2ccc(C(=N)N)cc2)c1=O.O=C(O)C(F)(F)F [Example 178],> 7.00,< 4.52,,<50.0
CCCCNc1cc(N)cc(-c2cnc(NC(C)C)c(=O)n2CC(=O)NCc2ccc(C(=N)N)cc2)c1.O=C(O)C(F)(F)F.O=C(O)C(F)(F)F [Example 145],> 7.00,,,<50.0
"CC(C)Nc1ncc(-c2cc(N)cc(C(F)(F)F)c2)n(CC(=O)NCc2ccc(C(=N)N)c(F)c2)c1=O.Cl [Example 154, N-{4-[amino(imino)methyl]-3-fluorobenzyl}-2-[6-[3-amino-5-(trifluoromethyl)phenyl]-3-(isopropylamino)-2-oxopyrazin-1 (2H)-yl]acetamide]",,,,>50.0
CC(C)Nc1ncc(-c2cc(N)cc(NCC(C)(C)C)c2)n(CC(=O)NCc2ccc(C(=N)N)cc2)c1=O.O=C(O)C(F)(F)F.O=C(O)C(F)(F)F [Example 152],,,,<50.0
"CC(C)Nc1ncc(-c2cc(N)cc(C(=O)O)c2)n(CC(=O)NCc2ccc(C(=N)N)cc2)c1=O [Example 16, 3-amino-5-[1-[2-({4-[amino(imino)methyl]benzyl}amino)-2-oxoethyl]-5-(isopropylamino)-6-oxo-1,6-dihydropyrazin-2-yl]benzoic Acid Trifluoracetate]",,,,<50.0
CC(C)Nc1ncc(-c2cc(N)cc(NC3CCCC3)c2)n(CC(=O)NCc2ccc(C(=N)N)cc2)c1=O.O=C(O)C(F)(F)F.O=C(O)C(F)(F)F [Example 148],> 7.00,,,<50.0
CC(C)Nc1ncc(-c2cc(N)cc(NCCC(C)(C)C)c2)n(CC(=O)NCc2ccc(C(=N)N)cc2)c1=O.O=C(O)C(F)(F)F.O=C(O)C(F)(F)F [Example 153],,,,<50.0
CC(C)Nc1ncc(-c2cc(N)cc(C(F)(F)F)c2)n(CC(=O)NCc2ccc(C(=N)N)c(O)c2F)c1=O [Example 97],< 7.00,< 4.52,< 4.52,
CC(C)Nc1ncc(-c2cc(N)cc(NCC3CCNCC3)c2)n(CC(=O)NCc2ccc(C(=N)N)cc2)c1=O.O=C(O)C(F)(F)F.O=C(O)C(F)(F)F [Example 146],> 7.00,,,<50.0
COC(=O)c1cc(N)cc(-c2cnc(NC(C)C)c(=O)n2CC(=O)NCc2c(F)c(O)c(C(=N)N)c(F)c2F)c1 [Example 20],< 7.00,< 4.52,< 4.52,
CC(C)Nc1ncc(-c2cc(N)cc(NCC3CCCNC3)c2)n(CC(=O)NCc2ccc(C(=N)N)cc2)c1=O.O=C(O)C(F)(F)F.O=C(O)C(F)(F)F (stereo not shown) [Example 147],> 7.00,,,<50.0
CC(C)Nc1ncc(-c2cc(N)cc(N)c2)n(CC(=O)NCc2cc(O)c(C(=N)N)c(F)c2)c1=O.O=C(O)C(F)(F)F [Example 117],,,,<50.0
CC(C)Nc1ncc(-c2cc(N)cc(O)c2)n(CC(=O)NCc2cc(O)c(C(=N)N)c(F)c2)c1=O [Example 180],< 7.00,< 4.52,< 4.52,
CC(C)Nc1ncc(-c2cc(N)cc(C(=O)NCc3cccc(F)c3)c2)n(CC(=O)NCc2ccc(C(=N)N)cc2)c1=O.O=C(O)C(F)(F)F.O=C(O)C(F)(F)F [Example 29],,,,<50.0
CC(C)Nc1ncc(-c2cc(N)cc(C(=O)NC[Si](C)(C)C)c2)n(CC(=O)NCc2ccc(C(=N)N)cc2)c1=O [Example 12],> 7.00,< 4.52,< 4.52,
CC[C@H](C)NC(=O)c1cc(N)cc(-c2cnc(NC(C)C)c(=O)n2CC(=O)NCc2c(OC)cc(C(=N)N)cc2OC)c1 [Example 196],< 7.00,< 4.52,< 4.52,

# Further lines, with some results ahead:
pIC50 [1],pIC50 (Human factor Xa),pIC50 (Human thrombin),SMILES,PT (Prothrombin time) 2xPT [2] [µM]
> 7.00,,,CCC(C)NC(=O)c1cc(N)cc(-c2cnc(NC(C)C)c(=O)n2CC(=O)NCc2ccc(C(=N)N)c(O)c2)c1 (stereo not shown) [Example 115],<50.0
> 7.00,< 4.52,< 4.52,CC(C)Nc1ncc(-c2cc(N)cc(C(=O)NCc3cccc(F)c3)c2)n(CC(=O)NCc2ccc(C(=N)N)cc2)c1=O [Example 8],
> 7.00,< 4.52,< 4.52,CC(C)Nc1ncc(-c2cc(N)cc(OC(C)C(=O)O)c2)n(CC(=O)NCc2ccc(C(=N)N)cc2)c1=O (stereo not shown) [Example 226],
> 7.00,< 4.52,< 4.52,CC(C)Nc1cnc(-c2cc(N)cc(C(=O)O)c2)n(CC(=O)NCc2ccc(C(=N)N)cc2)c1=O [Example 2],
> 7.00,< 4.52,> 4.52,CC[C@H](C)NC(=O)c1cc(N)cc(-c2cnc(N[C@@H](C)CO)c(=O)n2CC(=O)NCc2ccc(C(=N)N)cc2)c1 [Example 208],
< 7.00,< 4.52,< 4.52,CNc1ncc(-c2cc(N)cc(C(=O)O)c2)n(CC(=O)NCc2ccc(C(=N)N)cc2)c1=O [Example 37],
> 7.00,< 4.52,> 4.52,CC[C@H](C)NC(=O)c1cc(N)cc(-c2cnc(NC3CC3)c(=O)n2CC(=O)NCc2ccc(C(=N)N)cc2)c1 [Example 183],
> 7.00,< 4.52,< 4.52,"COC(=O)c1cc(N)cc(-c2cnc(NC(C)C)c(=O)n2CC(=O)NCc2ccc(C(=N)N)cc2)c1 [Example 21, Methyl 3-amino-5-[1-[2-({4-[amino(imino)methyl]benzyl}amino)-2-oxoethyl]-5-(isopropylamino)-6-oxo-1,6-dihydropyrazin-2-yl]benzoate Trifluoroacetate]",
> 7.00,< 4.52,< 4.52,COCCOCCOCCOC(=O)c1cc(N)cc(-c2cnc(NC(C)C)c(=O)n2CC(=O)NCc2ccc(C(=N)N)cc2)c1 [Example 200],
> 7.00,< 4.52,< 4.52,CC(C)Nc1ncc(-c2cc(N)cc(C(=O)NCCc3ccc(F)cc3)c2)n(CC(=O)NCc2ccc(C(=N)N)cc2)c1=O [Example 33],
> 7.00,> 4.52,> 4.52,CC(C)Nc1ncc(-c2cc(N)cc(C(=O)NC3CCCC3)c2)n(CC(=O)NCc2ccc(C(=N)N)cc2)c1=O [Example 11],
> 7.00,< 4.52,< 4.52,COC(=O)c1cc(N)cc(-c2ncc(NC(C)C)c(=O)n2CC(=O)NCc2ccc(C(=N)N)cc2)c1 [Example 1],
< 7.00,< 4.52,< 4.52,"COc1c(N)cc(CC(=O)O)cc1-c1cnc(NC(C)C)c(=O)n1CC(=O)NCc1ccc(C(=N)N)cc1 [Example 23, {3-Amino-5-[1-[2-({4-[amino(imino)methyl]benzyl}amino)-2-oxoethyl]-5-(isopropylamino)-6-oxo-1,6-dihydropyrazin-2-yl]-4-methoxyphenyl}acetic Acid]",
> 7.00,< 4.52,> 4.52,CC(C)Nc1ncc(-c2cc(N)cc(C(=O)NCc3ccccc3)c2)n(CC(=O)NCc2ccc(C(=N)N)cc2)c1=O [Example 25],
> 7.00,< 4.52,< 4.52,CC(C)CNC(=O)c1cc(N)cc(-c2cnc(NC(C)C)c(=O)n2CC(=O)NCc2ccc(C(=N)N)cc2)c1 [Example 27],
< 7.00,< 4.52,< 4.52,CC(C)Nc1nc(Cl)c(-c2cc(N)ccc2SCc2ccccc2)n(CC(=O)NCc2ccc(C(=N)N)cc2)c1=O [Example 31],
> 7.00,< 4.52,> 4.52,CC(C)Nc1ncc(-c2cc(N)cc(C(=O)NC3CCCCCC3)c2)n(CC(=O)NCc2ccc(C(=N)N)cc2)c1=O [Example 9],
< 7.00,< 4.52,< 4.52,CNc1ncc(-c2cc(N)cc(C(=O)OC)c2)n(CC(=O)NCc2ccc(C(=N)N)cc2)c1=O [Example 36],
